In brackets after ≈: the same amount, converted by molar mass.
Columns and labels:
[1] = Selectivity index, ratio of GI50 for human A549 cells to MIC for dormant state Mycobacterium bovis BCG ATCC 35734; type: toxicity, cell-based; settings: read-out: Selectivity Index
[2] = Selectivity index, ratio of GI50 for human PANC1 cells to MIC for active state Mycobacterium bovis BCG ATCC 35734; type: toxicity, cell-based, PANC-1; settings: read-out: Selectivity Index
[3] = Selectivity index, ratio of GI50 for human PANC1 cells to MIC for dormant state Mycobacterium bovis BCG ATCC 35734; type: toxicity, cell-based, PANC-1; settings: read-out: Selectivity Index
[4] = test system: Escherichia coli; assay: Antibacterial activity against Escherichia coli NCIM 2688 after 8 hrs; type: functional, organism-based; settings: NCIM 2688, 8 h
[5] = test system: Pseudomonas fluorescens; assay: Antibacterial activity against Pseudomonas fluorescens NCIM 2036 after 8 hrs; type: functional, organism-based; settings: NCIM 2036, 8 h
[6] = test system: Staphylococcus aureus; assay: Antibacterial activity against Staphylococcus aureus NCIM 2010 after 12 hrs; type: functional, organism-based; settings: NCIM 2010, 12 h
[7] = test system: Bacillus subtilis; assay: Antibacterial activity against Bacillus subtilis NCIM 2079 after 12 hrs; type: functional, organism-based; settings: NCIM 2079, 12 h
[8] = test system: Mycobacterium tuberculosis; assay: Antitubercular activity against active state Mycobacterium tuberculosis H37Ra assessed as viable cells after 8 days by XTT reduction menadione assay; type: functional, organism-based; settings: 192 h
[9] = test system: Mycobacterium tuberculosis; assay: Antitubercular activity against dormant state Mycobacterium tuberculosis H37Ra assessed as viable cells after 12 days by XTT reduction menadione assay; type: functional, organism-based; settings: 288 h
[10] = (§1) Cytotoxicity against human HeLa cells after 72 hrs by MTT assay; type: cell-based; settings: HeLa cells
[11] = test system: HeLa; assay: as §1; type: cell-based; settings: hela, 72 h
[12] = (§2) Cytotoxicity against human A549 cells after 48 hrs by MTT assay; type: cell-based; settings: A549 cells
[13] = test system: A549; assay: as §2; type: cell-based; settings: a549, 48 h
[14] = Cytotoxicity against human PANC1 cells after 48 hrs by MTT assay; type: cell-based, PANC-1; settings: for GI50 at 48 h: PANC1 cells; for GI90: panc-1, 48 h
[15] = Selectivity index, ratio of GI50 for human HeLa cells to MIC for active state Mycobacterium bovis BCG ATCC 35734; type: toxicity, cell-based; settings: read-out: Selectivity Index
[16] = Selectivity index, ratio of GI50 for human HeLa cells to MIC for dormant state Mycobacterium bovis BCG ATCC 35734; type: toxicity, cell-based; settings: read-out: Selectivity Index
[17] = Selectivity index, ratio of GI50 for human A549 cells to MIC for active state Mycobacterium bovis BCG ATCC 35734; type: toxicity, cell-based; settings: read-out: Selectivity Index

Row | SMILES | selectivity ratio [1] | selectivity ratio [2] | IC50 [4] | MIC [4] | IC50 [5] | MIC [5] | IC50 [6] | MIC [6] | IC50 [7] | MIC [7] | IC50 [8] | MIC [8] | IC50 [9] | MIC [9] | GI50 at 72 h [10] | GI90 [11] | GI50 at 48 h [12] | GI90 [13] | GI50 at 48 h [14] | GI90 [14] | also measured
1 | O=C(/C=C\c1ccccc1O)N1N=C(c2ccncc2)OC1c1c[nH]c2ccccc12 (stereo not given) | > 25.2 | > 31.9 | 21.7 µg/mL (≈ 52.9 µM) | > 256 µg/mL | 22.5 µg/mL (≈ 54.9 µM) | 192 µg/mL (≈ 469 µM) | 23.3 µg/mL (≈ 56.8 µM) | > 256 µg/mL | 22.1 µg/mL (≈ 53.9 µM) | > 256 µg/mL | > 30 µg/mL | > 30 µg/mL | > 30 µg/mL | > 30 µg/mL | 26.8 µg/mL (≈ 65.3 µM) | > 30 µg/mL | > 30 µg/mL | > 30 µg/mL | > 30 µg/mL | > 30 µg/mL | selectivity ratio [3]: > 25.2; selectivity ratio [15]: 28.5; selectivity ratio [16]: 22.5; selectivity ratio [17]: > 31.9
2 | O=C(/C=C\c1ccc([N+](=O)[O-])cc1)N1N=C(c2ccncc2)OC1c1c[nH]c2ccccc12 (stereo not given) | > 12.7 | > 12 | 9.46 µg/mL (≈ 21.5 µM) | 28.2 µg/mL (≈ 64.3 µM) | 11.9 µg/mL (≈ 27 µM) | 29.1 µg/mL (≈ 66.1 µM) | 12.7 µg/mL (≈ 28.8 µM) | 30.6 µg/mL (≈ 69.7 µM) | 13.5 µg/mL (≈ 30.6 µM) | 31.4 µg/mL (≈ 71.6 µM) | > 30 µg/mL | > 30 µg/mL | > 30 µg/mL | > 30 µg/mL | > 30 µg/mL | > 30 µg/mL | > 30 µg/mL | > 30 µg/mL | > 30 µg/mL | > 30 µg/mL | selectivity ratio [3]: > 12.7; selectivity ratio [15]: > 12; selectivity ratio [16]: > 12.7; selectivity ratio [17]: > 12
3 | CO[C@H]1/C=C/O[C@@]2(C)Oc3c(C)c(O)c4c(O)c(c(/C=N/N5CCN(C)CC5)c(O)c4c3C2=O)NC(=O)/C(C)=C\C=C\[C@H](C)[C@H](O)[C@@H](C)[C@@H](O)[C@@H](C)[C@H](OC(C)=O)[C@@H]1C [RIFAMPIN] | > 2700 | > 2860 |  |  |  |  |  |  |  |  | 0.0016 µg/mL (≈ 0.00194 µM) | 0.041 µg/mL (≈ 0.0498 µM) | 0.0017 µg/mL (≈ 0.00207 µM) | 0.045 µg/mL (≈ 0.0547 µM) |  |  |  |  |  |  | selectivity ratio [3]: > 2700; selectivity ratio [15]: > 2860; selectivity ratio [16]: > 2700; selectivity ratio [17]: > 2860
4 | O=C(/C=C\c1ccccc1[N+](=O)[O-])N1N=C(c2ccncc2)OC1c1c[nH]c2ccccc12 (stereo not given) | > 35.3 | > 29.1 | 18.4 µg/mL (≈ 41.8 µM) | > 256 µg/mL | 19.2 µg/mL (≈ 43.7 µM) | > 256 µg/mL | 21.1 µg/mL (≈ 47.9 µM) | > 256 µg/mL | 24.2 µg/mL (≈ 55.2 µM) | > 256 µg/mL | > 30 µg/mL | > 30 µg/mL | > 30 µg/mL | > 30 µg/mL | > 30 µg/mL | > 30 µg/mL | > 30 µg/mL | > 30 µg/mL | > 30 µg/mL | > 30 µg/mL | selectivity ratio [3]: > 35.3; selectivity ratio [15]: > 29.1; selectivity ratio [16]: > 35.3; selectivity ratio [17]: > 29.1
5 | NNC(=O)c1ccncc1 [ISONIAZID] | > 2560 | > 3030 |  |  |  |  |  |  |  |  | 0.0013 µg/mL (≈ 0.00948 µM) | 0.031 µg/mL (≈ 0.226 µM) | 0.0014 µg/mL (≈ 0.0102 µM) | 0.034 µg/mL (≈ 0.248 µM) |  |  |  |  |  |  | selectivity ratio [3]: > 2560; selectivity ratio [15]: > 3030; selectivity ratio [16]: > 2560; selectivity ratio [17]: > 3030
6 | O=C(/C=C\c1cccc([N+](=O)[O-])c1)N1N=C(c2ccncc2)OC1c1c[nH]c2ccccc12 (stereo not given) |  |  | 19.2 µg/mL (≈ 43.7 µM) | 174 µg/mL (≈ 395 µM) | 20.9 µg/mL (≈ 47.5 µM) | 55.7 µg/mL (≈ 127 µM) | 21.7 µg/mL (≈ 49.3 µM) | 93.2 µg/mL (≈ 212 µM) | 22.4 µg/mL (≈ 51 µM) | 86 µg/mL (≈ 196 µM) | > 30 µg/mL | > 30 µg/mL | > 30 µg/mL | > 30 µg/mL | > 30 µg/mL | > 30 µg/mL | > 30 µg/mL | > 30 µg/mL | > 30 µg/mL | > 30 µg/mL | 
7 | O=C(/C=C\c1ccc(F)cc1)N1N=C(c2ccncc2)OC1c1c[nH]c2ccccc12 (stereo not given) |  |  | 13.6 µg/mL (≈ 33 µM) | > 256 µg/mL | 7.33 µg/mL (≈ 17.8 µM) | > 256 µg/mL | 12.9 µg/mL (≈ 31.3 µM) | > 256 µg/mL | 15.6 µg/mL (≈ 37.8 µM) | > 256 µg/mL | > 30 µg/mL | > 30 µg/mL | > 30 µg/mL | > 30 µg/mL | > 30 µg/mL | > 30 µg/mL | > 30 µg/mL | > 30 µg/mL | > 30 µg/mL | > 30 µg/mL | 
8 | O=C(/C=C\c1ccccc1Cl)N1N=C(c2ccncc2)OC1c1c[nH]c2ccccc12 (stereo not given) |  |  | 1.73 µg/mL (≈ 4.03 µM) | 27.6 µg/mL (≈ 64.3 µM) | 2.53 µg/mL (≈ 5.9 µM) | 25.2 µg/mL (≈ 58.7 µM) | 3.33 µg/mL (≈ 7.76 µM) | 29.2 µg/mL (≈ 68 µM) | 4.13 µg/mL (≈ 9.63 µM) | 22 µg/mL (≈ 51.3 µM) | 11.6 µg/mL (≈ 27.1 µM) | > 30 µg/mL | > 30 µg/mL | > 30 µg/mL | > 30 µg/mL | > 30 µg/mL | > 30 µg/mL | > 30 µg/mL | > 30 µg/mL | > 30 µg/mL | 
9 | O=C(/C=C\c1ccc(Cl)cc1)N1N=C(c2ccncc2)OC1c1c[nH]c2ccccc12 (stereo not given) |  |  | > 256 µg/mL | > 256 µg/mL | > 256 µg/mL | > 256 µg/mL | > 256 µg/mL | > 256 µg/mL | > 256 µg/mL | > 256 µg/mL | > 30 µg/mL | > 30 µg/mL | > 30 µg/mL | > 30 µg/mL | > 30 µg/mL | > 30 µg/mL | > 30 µg/mL | > 30 µg/mL | > 30 µg/mL | > 30 µg/mL | 
10 | O=C(/C=C\c1cccc(Br)c1)N1N=C(c2ccncc2)OC1c1c[nH]c2ccccc12 (stereo not given) |  |  | 2.39 µg/mL (≈ 5.05 µM) | 18.2 µg/mL (≈ 38.6 µM) | 3.19 µg/mL (≈ 6.74 µM) | 19.1 µg/mL (≈ 40.2 µM) | 2.01 µg/mL (≈ 4.25 µM) | 21.1 µg/mL (≈ 44.5 µM) | 4.74 µg/mL (≈ 10 µM) | 22.6 µg/mL (≈ 47.9 µM) | > 30 µg/mL | > 30 µg/mL | > 30 µg/mL | > 30 µg/mL | > 30 µg/mL | > 30 µg/mL | > 30 µg/mL | > 30 µg/mL | > 30 µg/mL | > 30 µg/mL | 
11 | Cc1ccc(/C=C\C(=O)N2N=C(c3ccncc3)OC2c2c[nH]c3ccccc23)cc1 (stereo not given) |  |  | 3.33 µg/mL (≈ 8.15 µM) | 7.86 µg/mL (≈ 19.2 µM) | 4.13 µg/mL (≈ 10.1 µM) | 8.66 µg/mL (≈ 21.2 µM) | 5.73 µg/mL (≈ 14 µM) | 9.46 µg/mL (≈ 23.2 µM) | 6.53 µg/mL (≈ 16 µM) | 10.3 µg/mL (≈ 25.1 µM) | > 30 µg/mL | > 30 µg/mL | > 30 µg/mL | > 30 µg/mL | > 30 µg/mL | > 30 µg/mL | > 30 µg/mL | > 30 µg/mL | > 30 µg/mL | > 30 µg/mL | 
